From PMC13065503

Assay: Cys/Cys side-chain stapling of bis-cysteine Omomyc mutants by S-alkylation with bis(bromomethyl)arenes (1.25 eq): 4,4'-bis(bromomethyl)biphenyl for i,i+7 or 1,3-bis(bromomethyl)benzene (with 2 eq TCEP) for i,i+4; pH 8
Conditions: the molecule shown is the open-chain precursor, 100 mM aq NH4HCO3 pH 8 / 25% MeCN, 0.1 mM

Row | Substance | ring closure, isolated yield (36-membered ring) [%] | ring closure, isolated yield (22-membered ring) [%]
1 | H-AMADIGSMATEENC(SH)KRRTHNC(SH)LERQRRNELKRSFFALRDQIPELENNEKAPKVVILKKATAYILSVQAETQKLISEIDLLRKQNEQLKHKLEQLRNSAA-OH | 67 | –
2 | H-AMADIGSMATEENVKRRTHNC(SH)LERQRRC(SH)ELKRSFFALRDQIPELENNEKAPKVVILKKATAYILSVQAETQKLISEIDLLRKQNEQLKHKLEQLRNSAAPAAKRVKLD-OH | 60 | –
3 | H-AMADIGSMATEENC(SH)KRRC(SH)HNVLERQRRNELKRSFFALRDQIPELENNEKAPKVVILKKATAYILSVQAETQKLISEIDLLRKQNEQLKHKLEQLRNSAA-OH | – | 26
4 | H-AMADIGSPAAKRVKLDMATEENVKRRTHNC(SH)LERQRRC(SH)ELKRSFFALRDQIPELENNEKAPKVVILKKATAYILSVQAETQKLISEIDLLRKQNEQLKHKLEQLRNSAA-OH | 46 | –
5 | H-AMADIGSMATEENVKRRTHNC(SH)LERQRRC(SH)ELKRSFFALRDQIPELENNEKAPKVVILKKATAYILSVQAETQKLISEIDLLRKQNEQLKHKLEQLRNSAA-OH | 69 | –
6 | H-AMADIGSMAC(SH)EENC(SH)KRRTHNVLERQRRNELKRSFFALRDQIPELENNEKAPKVVILKKATAYILSVQAETQKLISEIDLLRKQNEQLKHKLEQLRNSAA-OH | – | 38
